Measured values published in patent publication US10344279B2, “Methods for the prevention and the treatment of extracapillary glomerulonephritis” (INSERM (Institut National de la Sante et de la Recherche …, priority 2014, dated 2019).

Tested on: primary podocytes
Test: Wound assay of podocyte migration
Format: cell-based, mouse
Conditions: Stattic 2 μM, migration within 12 hours
Protocol: After 4 days of primary culture, podocytes were trypsinized then plated into μ-Dish 35 mm high with Culture-Insert (Ibidi). Ibidi's wounding inserts were used for cell migration studies. The coverage of the 500-μm gap was assessed after 12 hours of culture and podocyte migration area was quantified using ImageJ software. The effects of HB-EGF (10 ng/mL, Preprotech) or AG1478 (1 μM, Calbiochem) or anti-mIL-6 monoclonal antibody MP5-20F3 (10 μg/mL, eBiosciences) or Stattic (2 μM, Calbiochem) on differentiated podocytes was applied during 16 hours. After stimulation, podocytes were scrapped in Phosphosafe buffer for protein extraction or in RLT buffer for total RNA extraction.

O=[N+]([O-])c1ccc2c(c1)S(=O)(=O)C=C2 [Stattic]
migratory phenotype of podocytes: inhibited
migratory phenotype of podocytes (listed as STAT3 inhibitor): little or no effect
